Results as given in patent US8637528B2, “Use of PDE7 inhibitors for the treatment of movement disorders” (Omeros Corporation, priority 2007, dated 2014).
“Also recorded” adds a separate entry of the source. Like-named read-outs stand apart in the source and are kept apart here. Values belong to the compound of their own block, whether it stands above or below them.

How the values were obtained:
PDE7A = PDE7A (Homo sapiens (Human), UniProt Q13946); assay: PDE7 phosphodiesterase scintillation proximity assay (SPA), PDE7A; type: biochemical
PDE7B = PDE7B (Homo sapiens (Human), UniProt Q9NP56); assay: PDE7 phosphodiesterase scintillation proximity assay (SPA), PDE7B; type: biochemical
[1] = plasma and brain concentration in mice after intraperitoneal injection (LC/MS/MS); type: in vivo, mouse; conditions: mouse, at 0.5 mg/kg, analogous calculation
Procedure: Adult male C57BL/6J; retired breeders, aged between 7-9 months (Jackson Laboratory, Bar Harbor, Me., USA), singly housed.
Just prior to the harvesting of tissues, mice were anesthetized with avertin. Samples of whole brain or plasma were collected from three animals per time point at 15 minutes, 30 minutes, 60 minutes, 120 minutes, and 240 minutes after injection. Blood samples were collected by retro-orbital bleeding. Plasma was prepared and red cells were removed by centrifugation. The mice were perfused with saline to remove contaminating blood. The brains were removed and rapidly frozen in liquid nitrogen for subsequent analysis. The plasma and brain samples were stored at −80° C. or on dry ice and the concentration of compound was determined by LC/MS/MS analysis as follows:
Whole brain tissue was homogenized using a Mini-Beaddeater-8™ (BioSpec Products, Bartlesville, Okla.). Plasma or homogenized brain samples were precipitated with acetonitrile and filtered in 96-well format using Captiva 0.20 micron filtration plates (Varian Corp, Lake Forest, Calif.). Filtrates were evaporated under nitrogen to dryness at 50° C. and were then reconstituted for LC-MS analysis.
Quantitative measurements for inhibitory compound in plasma and brain samples were obtained using a Thermo Ultra triple quadrupole mass spectrometer (Thermo Fisher Scientific, San Jose, Calif.), utilizing electrospray ionization in the multiple reaction monitoring mode of data acquisition. Sample extracts were injected onto a 2.1×30 mm packed Xterra C18-MS high pressure liquid chromatography (HPLC) column (Waters Corp, Milford, Mass.). The mobile phase eluting the compound from the HPLC column was applied using a Thermo Surveyor MS Plus HPLC quaternary pumping system (Thermo Fisher Scientific, San Jose, Calif.) and a HTC PAL autoinjector (LEAP Technologies, Chapel Hill, N.C.).

MPTP-treated mice = assay: inked paw stride length in the MPTP mouse model of Parkinson's disease, panel of PDE7 inhibitors (Example 7); type: in vivo; conditions: 20 minutes after dose
Procedure: Adult male C57BL/6J; retired breeders, aged between 7-9 months Charles River Laboratories, Wilmington, Mass.), singly housed. Three groups of 35 mice were tested in series one week apart.
Mice received 2 subcutaneous injections of methylphenyltetrahydropyridine (“MPTP”) at a dose of 15 mg/kg (free base) with a 10-12 hour interval between injections. Control mice (sham lesion groups) were administered saline instead of MPTP.
Prior to injection with MPTP or saline, animals were pre-trained to walk across a clean sheet of paper into their home cage without stopping. For assessment of stride length, animals had their forepaws placed in black ink and the length of forepaw steps during normal walking (in a straight line only) was measured. The animals were immediately put back into their home cage upon completion of the task. Stride length was determined by measuring the distance between each step on the same side of the body, measuring from the middle toe of the first step to the heel of the second step. An average of at least four clear steps was calculated. The schedule for this experiment was as follows:
Because of the wide variation in aqueous solubility among these compounds, a number of different formulations were required. L-dopa was administered in 100 μl of phosphate buffered saline. For animals treated with L-dopa, the dopa decarboxylase inhibitor benserazide (100 μL of a 12.5 mg/kg solution) was administered 15 minutes prior to treatment with L-dopa in order to minimize the destruction of L-dopa in the peripheral blood. […] Therefore, the treatment effects observed are due solely to the PDE7 inhibitory compounds themselves. […] This phenomenon of “overshoot” has also been observed with L-dopa in MPTP-treated mice in which lower doses ameliorate hypoactivity while higher doses induce dyskinesias or uncontrolled movements (Lundblad M. et al., Exp Neurol.194(1):66-75 (2005); Pearce R. K. et al., Mov Disord. 10(6):731-40 (1995); Fredriksson, A. et al, Pharmacol-Toxicol. 67(4): 295-301 (1990)).
Retired breeder male mice were treated with either saline or 2×15 mg/kg MPTP to induce a Parkinsonian state (neurochemical loss of dopamine with corresponding behavioral deficits). On day one baseline stride length was measured and then mice were treated with either MPTP or with saline as a control. On day eight stride length was measured again, and the control value for stride length was derived from the stride length of saline-treated animals. The animals were then divided randomly into treatment groups. Compound OM955 (compound 3) was tested at 0.1 mg/kg, at 0.5 mg/kg, and at 0.1 mg/kg in combination with 1 mg/kg L-dopa.

Tyrosine Hydroxylase [2] = target: T1, Tyrosine Hydroxylase (Rattus norvegicus (Rat), UniProt P04177); assay: Tyrosine Hydroxylase enzyme assay; type: biochemical; conditions: read-out: Positive Control Observed IC50, Tyrosine Hydroxylase
Procedure: Tyrosine Hydroxylase was assayed as described in Roskoski, R., Jr., et al., J. Biochem 218:363-370 (1993) with the following modifications. Tyrosine Hydroxylase was isolated from Wistar rat brain. The substrate was 100 μM L-[3,5-^3H]Tyrosine+L-Tyrosine. The vehicle control was 1% DMSO. Compound OM69 was tested at 10 μM in incubation buffer (125 mM MES, pH 6.0, 0.5 mg/ml Catalase, 12.5 mM DTT, 0.5 mM (6R)-5,6,7,8-Tetrahydrobiopterin). The reaction was pre-incubated for 15 minutes at 37° C. Tyrosine Hydroxylase enzyme was added, and the reaction was incubated for 20 minutes at 37° C. [^3H]-H20 was quantitated.

Tyrosine Hydroxylase [3] = target: T1, Tyrosine Hydroxylase; conditions: historical value; read-out: Positive Control Expected IC50 (historical), Tyrosine Hydroxylase; cited from earlier work
[4] = target: T2, Catechol-O-Methyltransferase (COMT) (Sus scrofa, UniProt D3K5L3); assay: biochemical; type: biochemical, pig
[5] = target: T2, Catechol-O-Methyltransferase (COMT); conditions: read-out: Positive Control Expected IC50 (historical), COMT; historical value; cited from earlier work

Chain of PDE7B (Q9NP56 107-450 limits assumed): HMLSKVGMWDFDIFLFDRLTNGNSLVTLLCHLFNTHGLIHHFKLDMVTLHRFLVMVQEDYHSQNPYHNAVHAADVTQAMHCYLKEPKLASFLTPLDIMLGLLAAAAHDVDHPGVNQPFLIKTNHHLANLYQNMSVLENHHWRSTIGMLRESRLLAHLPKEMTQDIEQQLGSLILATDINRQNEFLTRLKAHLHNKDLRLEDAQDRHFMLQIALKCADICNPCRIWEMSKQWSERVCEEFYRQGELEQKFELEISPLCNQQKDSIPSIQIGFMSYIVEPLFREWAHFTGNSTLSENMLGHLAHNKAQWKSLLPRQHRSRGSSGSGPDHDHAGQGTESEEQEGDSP
Chain of PDE7A (Q13946 whole entry, looked up): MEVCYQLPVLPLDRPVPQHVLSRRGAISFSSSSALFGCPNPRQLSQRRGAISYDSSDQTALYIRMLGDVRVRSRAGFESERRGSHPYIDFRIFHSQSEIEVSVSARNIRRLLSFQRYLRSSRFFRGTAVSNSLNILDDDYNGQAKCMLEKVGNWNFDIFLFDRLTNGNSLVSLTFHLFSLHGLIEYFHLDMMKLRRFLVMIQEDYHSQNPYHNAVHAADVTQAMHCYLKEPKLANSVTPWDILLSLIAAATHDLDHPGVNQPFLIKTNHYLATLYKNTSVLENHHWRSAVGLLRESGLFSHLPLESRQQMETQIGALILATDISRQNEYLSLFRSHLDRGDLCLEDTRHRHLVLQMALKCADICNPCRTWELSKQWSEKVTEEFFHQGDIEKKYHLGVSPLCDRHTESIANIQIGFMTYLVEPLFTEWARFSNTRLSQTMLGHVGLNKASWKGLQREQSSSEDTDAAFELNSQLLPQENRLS
T1 sequence (P04177 whole entry): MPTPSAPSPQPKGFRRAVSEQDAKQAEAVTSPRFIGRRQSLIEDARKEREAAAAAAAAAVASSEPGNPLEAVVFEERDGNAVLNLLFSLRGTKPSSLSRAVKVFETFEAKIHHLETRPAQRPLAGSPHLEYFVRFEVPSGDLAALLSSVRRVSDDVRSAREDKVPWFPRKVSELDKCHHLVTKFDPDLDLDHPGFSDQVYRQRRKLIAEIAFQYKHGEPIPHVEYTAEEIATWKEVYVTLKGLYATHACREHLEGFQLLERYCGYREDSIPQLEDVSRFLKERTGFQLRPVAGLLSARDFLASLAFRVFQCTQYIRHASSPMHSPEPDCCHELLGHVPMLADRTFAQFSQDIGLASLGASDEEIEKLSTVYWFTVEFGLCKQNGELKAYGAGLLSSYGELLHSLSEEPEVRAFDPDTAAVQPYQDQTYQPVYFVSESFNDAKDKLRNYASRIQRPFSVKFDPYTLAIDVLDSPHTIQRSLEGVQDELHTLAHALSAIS
T2 sequence (D3K5L3 1-270): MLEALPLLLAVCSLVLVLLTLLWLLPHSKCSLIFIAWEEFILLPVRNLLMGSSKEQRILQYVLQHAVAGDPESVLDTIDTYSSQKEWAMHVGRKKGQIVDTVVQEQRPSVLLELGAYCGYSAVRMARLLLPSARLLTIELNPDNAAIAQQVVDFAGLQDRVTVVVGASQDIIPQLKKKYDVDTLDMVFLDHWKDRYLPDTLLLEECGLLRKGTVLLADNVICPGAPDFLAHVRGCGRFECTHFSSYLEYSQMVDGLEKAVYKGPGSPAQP

- potency of PDE7A inhibition, in words (PDE7A): high potency
- potency of PDE7B inhibition, in words (PDE7B): high potency
- IC50 (PDE7B; unit inferred): 9.27 nM
- maximal brain concentration at dose where efficacy was observed [1]: 358 nM
SMILES: COc1cc(N)ccc1-c1nc2c(C)nn(C3CCCCC3)c2c(=O)[nH]1 [OM056]
- effect on stride length, in words (MPTP-treated mice; OM056 0.05 mg/kg): statistically significant increase; also recorded: full recovery of baseline stride length

SMILES: C[C@](N)(Cc1ccc(O)cc1)C(=O)O [α-Methyl-L-P-Tyrosine, reference compound]
- IC50 (Tyrosine Hydroxylase [2]): 20200 nM
- IC50 (Tyrosine Hydroxylase [3]): 20000 nM

- potency of PDE7A inhibition, in words (PDE7A): moderate potency
- potency of PDE7B inhibition, in words (PDE7B): moderate potency
- maximal brain concentration at dose where efficacy was observed [1]: 5260 nM
SMILES: CC(=O)Nc1ccc(-c2nn(C)/c(=N/C3CCCCC3)s2)cc1 [OM956]
- effect on stride length, in words (MPTP-treated mice; OM956 0.5 mg/kg): statistically significant increase; also recorded: full recovery of baseline stride length

SMILES: O=[N+]([O-])c1cc(O)c(O)c([N+](=O)[O-])c1 [3,5-Dinitrocatechol, reference compound]
- IC50 [4]: 606 nM
- IC50 [5]: 310 nM
